The text below walks through data of ChEMBL document CHEMBL1275325, “QSAR guided synthesis of simplified antiplasmodial analogs of naphthylisoquinoline alkaloids” (Eur J Med Chem, 2010).

pIC50: −log10 of the molar value.

The subject of data set [1] is Trypanosoma brucei rhodesiense. Put plainly: Antitrypanosomal activity against Trypanosoma brucei rhodesiense STIB900. The class given is functional, organism-based. The settings on record: for pIC50: Trypanosoma brucei, STIB900, read-out: IC50.
Data set [2] concerns L6. Put plainly: Cytotoxicity against rat L6 cells. In kind it is cell-based.
Data set [3] is described as follows: Selectivity index, ratio of IC50 for rat L6 cells to IC50 for Plasmodium falciparum K1. In kind it is toxicity, cell-based. The note with it: read-out: Ratio IC50.
Data set [4] relates to Leishmania donovani. As to the kind of experiment: Antileishmanial activity against axenic amastigotes of Leishmania donovani. In kind it is functional, organism-based. The settings on record: for pIC50: Leishmania donovani, read-out: IC50.
The subject of data set [5] is Trypanosoma cruzi. Put plainly: Antitrypanosomal activity against clone C4 Trypanosoma cruzi Tulahuen expressing LacZ. In kind it is functional, organism-based. The note with it: for pIC50: Trypanosoma cruzi, Tulahuen, read-out: IC50.
Data set [6] relates to Trypanosoma brucei brucei. Put plainly: Antitrypanosomal activity against Trypanosoma brucei brucei. The class given is functional, organism-based. The note with it: for pIC50: Trypanosoma brucei, read-out: IC50.
The subject of data set [7] is Plasmodium falciparum. As to the kind of experiment: Antiplasmodial activity against Plasmodium falciparum K1. In kind it is functional, organism-based.
For data set [8], the system named is Leishmania major. As to the kind of experiment: Antileishmanial activity against promastigotes of Leishmania major. The class given is functional, organism-based. The note with it: for pIC50: Leishmania major, read-out: IC50.

In the case of `CC1(C)Cc2c(Br)ccc(O)c2C=N1`, the IC50 entry in data set [1], in data set [4] and in data set [5] was “Not Active” in each case. In addition, the pIC50 was less than 4.00 in data set [2], less than 4.00 in data set [6], 6.15 in data set [7] and less than 4.00 in data set [8]. In data set [3], the selectivity ratio was more than 141.
`Oc1ccc(Br)c2c1C=NCC2`: the IC50 result in data set [1], in data set [4], in data set [5], in data set [6] and in data set [8] was “Not Active” each time. The pIC50 is less than 4.00 in data set [2] and 5.91 in data set [7].
`COc1ccc(Br)c2c1C(C)=N[C@H](C)C2`: the negative logarithm of the IC50 (pIC50) in data set [1] is less than 4.00; in data set [2], less than 4.00; in data set [4], less than 4.00; in data set [5], less than 4.00; in data set [7], less than 4.72. Besides, the IC50 entry in data set [6] and in data set [8] was “Not Active” in each case.
As for `COc1ccc(-c2ccccc2)c2c1C(C)=N[C@H](C)C2`, the pIC50 is 5.19 in data set [1]; 4.23 in data set [2]; 4.13 in data set [4]; 4.33 in data set [5]; 4.83 in data set [6]; 5.73 in data set [7]. Further, the pIC50 in data set [8] was less than 4.00.
As for `CC1=N[C@H](C)Cc2c(-c3ccccc3)ccc(O)c21`, the negative logarithm of the IC50 (pIC50) is 5.32 in data set [1]; 4.28 in data set [2]; less than 4.00 in data set [4]; 4.24 in data set [5]; 4.87 in data set [6]; 6.09 in data set [7]. Further, in data set [8], the pIC50 was less than 4.00.
On to `CC1=N[C@H](C)Cc2c(-c3ccc(O)cc3)ccc(O)c21`, for which the negative logarithm of the IC50 (pIC50) in data set [1] was 4.27; in data set [2], less than 4.00; in data set [4], less than 4.00; in data set [5] it was less than 4.00; in data set [7] it was 5.00. The IC50 result in data set [6] and in data set [8] was “Not Active” each time.
Turning to `CC1=N[C@H](C)Cc2c(-c3ccc(Cl)cc3)ccc(O)c21`, the IC50 result in data set [1], in data set [4] and in data set [5] was “Not Active” throughout. In addition, the pIC50 in data set [2] is less than 4.00; in data set [6] it was less than 4.40; in data set [7] it was 6.27; in data set [8] it was less than 4.00. For the same compound, the selectivity ratio in data set [3] is more than 188.
With `CC1=N[C@H](C)Cc2c(-c3cccc(Cl)c3)ccc(O)c21`, the pIC50 in data set [1] is 5.12; in data set [2], 4.29; in data set [4] it was 4.61; in data set [5] it was 4.86; in data set [6], 4.57; in data set [7], 6.07. Also, the negative-log IC50 (pIC50) in data set [8] is 4.28.
Regarding `COc1ccc(-c2cccc(Cl)c2)c2c1C(C)=N[C@H](C)C2`, the pIC50 was 5.93 in data set [1]; 4.42 in data set [2]; 4.89 in data set [4]; 4.85 in data set [5]; 5.10 in data set [7]. The IC50 result in data set [6] and in data set [8] was “Not Active” in each case.
Regarding `COc1ccc(-c2cccc3ccccc23)c2c1C(C)=N[C@H](C)C2`, the negative-log IC50 (pIC50) is 5.40 in data set [1]; 4.46 in data set [2]; 4.84 in data set [4]; 4.80 in data set [5]; 5.16 in data set [7]. The IC50 result in data set [6] and in data set [8] was “Not Active” in each case.
As to `CC1=N[C@H](C)Cc2c(-c3cccc4ccccc34)ccc(O)c21`, the pIC50 is 4.96 in data set [1]; 4.24 in data set [2]; 4.57 in data set [4]; 4.80 in data set [5]; 5.56 in data set [6]; 6.12 in data set [7]. For the same compound, the negative logarithm of the IC50 (pIC50) in data set [8] is 4.87.
Consider `COc1ccc(-c2ccc3ccccc3c2)c2c1C(C)=N[C@H](C)C2`, for which the pIC50 in data set [1] is 5.35; in data set [2], 4.14; in data set [4] it was 4.67; in data set [5], 4.68; in data set [6] it was 5.00; in data set [7], 5.93. In data set [8], the negative-log IC50 (pIC50) was 4.55.
For the compound `COc1ccc(-c2ccc(OC)c3ccccc23)c2c1C=NC(C)(C)C2`, the IC50 entry in data set [1] and in data set [5] was “Not Active” each time. Besides, the pIC50 is 4.36 in data set [2]; 5.71 in data set [4]; 4.52 in data set [6]; 5.62 in data set [7]; 4.43 in data set [8].
With `COc1ccc(-c2ccc(OC)c3ccccc23)c2c1C=NCC2`, the IC50 result in data set [1] and in data set [4] was “Not Active” each time. Further, the pIC50 is 4.46 in data set [2]; 4.96 in data set [5]; 4.58 in data set [6]; 5.77 in data set [7]; 4.33 in data set [8].
Consider `Oc1ccc(-c2ccc(O)c3ccccc23)c2c1C=NCC2`, for which the IC50 entry in data set [1], in data set [4], in data set [5], in data set [6] and in data set [8] was “Not Active” in each case. The pIC50 was 4.03 in data set [2] and 5.46 in data set [7].
With `COc1cccc2c(-c3ccc(O)c4c3CC(C)(C)N=C4)ccc(OC(C)C)c12`, the IC50 result in data set [1], in data set [4], in data set [5], in data set [6] and in data set [8] was “Not Active” in each case. Besides, the pIC50 was less than 4.00 in data set [2] and 6.86 in data set [7]. The selectivity ratio in data set [3] was more than 725.
Consider `COc1cccc2c(-c3ccc(O)c4c3CCN=C4)ccc(OC(C)C)c12`, for which the IC50 result in data set [1], in data set [4], in data set [5], in data set [6] and in data set [8] was “Not Active” each time. Further, the pIC50 in data set [2] was 4.57; in data set [7], 6.92. Besides, the selectivity ratio in data set [3] stood at 227.
In the case of `COc1cccc2c(-c3ccc(O)c4c3CC(C)(C)N=C4)ccc(O)c12`, the IC50 result in data set [1], in data set [4] and in data set [5] was “Not Active” each time. Besides, the pIC50 is less than 4.00 in data set [2], 4.47 in data set [6], 5.77 in data set [7] and less than 4.00 in data set [8].
Take `COc1cccc2c(-c3ccc(O)c4c3CCN=C4)ccc(O)c12`: the IC50 entry in data set [1], in data set [4], in data set [5], in data set [6] and in data set [8] was “Not Active” each time. The figures for the pIC50 in data set [2] and in data set [7] were 4.01 and 5.70, respectively.
For `COc1cccc2c(-c3ccc(O)c4c3CC(C)(C)NC4)ccc(O)c12`, the pIC50 is 5.53 in data set [1], 4.43 in data set [2] and 6.65 in data set [7]. In addition, the selectivity ratio in data set [3] amounted to 168. For the same compound, the IC50 result in data set [4], in data set [5], in data set [6] and in data set [8] was “Not Active” throughout.
`COc1cccc2c(-c3ccc(O)c4c3CCNC4)ccc(O)c12`: the negative-log IC50 (pIC50) in data set [1] is 5.61; in data set [2], 4.40; in data set [7], 6.58. In addition, in data set [3], the selectivity ratio was 152. Moreover, the IC50 result in data set [4], in data set [5], in data set [6] and in data set [8] was “Not Active” in each case.
On to `COc1ccc(-c2ccc(C)cc2)c2c1C(C)=N[C@H](C)C2`, for which the pIC50 in data set [1] was 5.23; in data set [2], less than 4.00; in data set [4], 4.45; in data set [5] it was 4.71; in data set [6], 4.69; in data set [7] it was 5.60. The negative logarithm of the IC50 (pIC50) in data set [8] was less than 4.08.
For `COc1ccc(-c2ccc(O)cc2)c2c1C(C)=N[C@H](C)C2`, the negative-log IC50 (pIC50) in data set [1] is 5.32; in data set [2], less than 4.00; in data set [4], 4.67; in data set [5], 4.59; in data set [7], 4.97. Besides, the IC50 result in data set [6] and in data set [8] was “Not Active” each time.
As to `COc1ccc(-c2ccc(Cl)cc2)c2c1C(C)=N[C@H](C)C2`, the pIC50 is 5.11 in data set [1]; 4.25 in data set [2]; 4.80 in data set [4]; 4.82 in data set [5]; 5.19 in data set [7]. Moreover, the IC50 result in data set [6] and in data set [8] was “Not Active” throughout.
On to `COc1ccc(-c2ccc(C(F)(F)F)cc2)c2c1C(C)=N[C@H](C)C2`, for which the negative-log IC50 (pIC50) in data set [1] was 5.13; in data set [2], less than 4.00; in data set [4] it was 4.74; in data set [5], less than 4.00; in data set [6], 4.98; in data set [7] it was 5.52. Further, the pIC50 in data set [8] is less than 4.00.
Take `C[C@@H]1[C@H](O)[C@@H](C)/C=C/C=C/C=C/C=C/C=C/C=C/C=C/[C@H](O[C@@H]2O[C@H](C)[C@@H](O)[C@H](N)[C@@H]2O)C[C@@H]2O[C@](O)(C[C@@H](O)C[C@@H](O)[C@H](O)CC[C@@H](O)C[C@@H](O)CC(=O)O[C@H]1C)C[C@H](O)[C@H]2C(=O)O` [AMPHOTERICIN B]: the pIC50 in data set [8] is 5.60.
Turning to `O=C(Cn1ccnc1[N+](=O)[O-])NCc1ccccc1` [BENZNIDAZOLE], the negative-log IC50 (pIC50) in data set [5] is 5.70.
For the compound `Nc1nc(N)nc(Nc2ccc([As]3SCC(CO)S3)cc2)n1` (stereo not given) [MELARSOPROL], the negative-log IC50 (pIC50) in data set [1] is 8.15.
Consider `N=C(N)c1ccc(OCCCCCOc2ccc(C(=N)N)cc2)cc1` [PENTAMIDINE], for which the negative logarithm of the IC50 (pIC50) in data set [6] was 8.52.
